Results from ChEMBL document CHEMBL1144792, “Beta-carboline alkaloids from a Korean tunicate Eudistoma sp” (2008).
≈ marks a conversion by molar mass, not a printed value. Calls of active or inactive are those of the source. The calls are words filed in the database; no cut-off is given here.

Assays:
[1] = system: Staphylococcus epidermidis; assay: Antibacterial activity against Staphylococcus epidermidis ATCC 12228 after 24 hrs by 2-fold microtiter broth dilution method; type: functional; conditions: ATCC 12228, 24 h
Salmonella typhimurium = assay: Antibacterial activity against Salmonella Typhimurium ATCC 14028 after 24 hrs by 2-fold microtiter broth dilution method; type: functional, organism-based; conditions: Salmonella enterica subsp. enterica serovar Typhimurium
Escherichia coli = assay: Antibacterial activity against Escherichia coli ATCC 11775 after 24 hrs by 2-fold microtiter broth dilution method; type: functional, organism-based
Micrococcus luteus = assay: Antibacterial activity against Micrococcus luteus ATCC 9341 after 24 hrs by 2-fold microtiter broth dilution method; type: functional, organism-based
Staphylococcus aureus = assay: Antibacterial activity against Staphylococcus aureus ATCC 6538 after 24 hrs by 2-fold microtiter broth dilution method; type: functional, organism-based
Bacillus subtilis = assay: Antibacterial activity against Bacillus subtilis ATCC 6633 after 24 hrs by 2-fold microtiter broth dilution method; type: functional; conditions: ATCC 6633, 24 h
Klebsiella pneumoniae = assay: Antibacterial activity against Klebsiella pneumoniae ATCC 4352 after 24 hrs by 2-fold microtiter broth dilution method; type: functional, organism-based

| MIC [1] [µg/mL] | MIC (Bacillus subtilis) [µg/mL] | Compound | Activity (Salmonella typhimurium) | Activity (Escherichia coli) | Activity (Micrococcus luteus) | Activity (Staphylococcus aureus) | Activity (Klebsiella pneumoniae) |
| --- | --- | --- | --- | --- | --- | --- | --- |
| 12.5 (≈ 23.8 µM) | 25 (≈ 47.6 µM) | O=C(c1cc(Br)c(O)c(Br)c1)c1nccc2c1[nH]c1ccc(Br)cc12 [EUDISTOMIN Y6] | inactive | inactive | inactive | inactive | inactive |
| 50 (≈ 173 µM) | – | O=C(c1ccc(O)cc1)c1nccc2c1[nH]c1ccccc12 [EUDISTOMIN Y1] | – | – | – | – | – |
| – | 200 (≈ 448 µM) | O=C(c1ccc(O)c(Br)c1)c1nccc2c1[nH]c1ccc(Br)cc12 [EUDISTOMIN Y4] | – | – | – | – | – |
